Source: PubChem BioAssay AID1963444 (Molecular Pharmacology Branch, DTP, NCI, 2024)

Test system: HSSY-II complex spheroid growth, percent test/control
Test: Anticancer human tumor HSSY-II cell line growth inhibition [Asc];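 also: spheroids exposed to drug for 7 days before reading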
Settings: for IC50: curve of first compound; for viability, T/C: stronger effect = lower value
In short: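 Tumor cells were grown as complex spheroids with human endothelial cells (HUVEC) and human mesenchymal stem cells as stroma. Agents were tested alone and in combination, in half-log steps down from the clinical Cmax, or from 10 microM where Cmax was unknown.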

[1] = second compound 0.1 µM, first compound 0.00316 µM
[2] = second compound 0.1 µM, first compound 0.01 µM
[3] = second compound 0.1 µM, first compound 0.0316 µM
[4] = second compound 0.1 µM, first compound 0.1 µM
[5] = second compound 0.1 µM, first compound 0.316 µM
[6] = second compound 0.1 µM, first compound 1 µM
[7] = second compound 0.316 µM, first compound 0.00316 µM
[8] = second compound 0.316 µM, first compound 0.01 µM
[9] = second compound 0.316 µM, first compound 0.0316 µM
[10] = second compound 0.316 µM, first compound 0.1 µM
[11] = second compound 0.316 µM, first compound 0.316 µM
[12] = second compound 0.316 µM, first compound 1 µM
[13] = second compound 1 µM, first compound 0.00316 µM
[14] = second compound 1 µM, first compound 0.01 µM
[15] = second compound 1 µM, first compound 0.0316 µM
[16] = second compound 1 µM, first compound 0.1 µM
[17] = second compound 1 µM, first compound 0.316 µM
[18] = second compound 1 µM, first compound 1 µM
[19] = second compound 3.16 µM, first compound 0.00316 µM
[20] = second compound 3.16 µM, first compound 0.01 µM
[21] = second compound 3.16 µM, first compound 0.0316 µM
[22] = second compound 3.16 µM, first compound 0.1 µM
[23] = second compound 3.16 µM, first compound 0.316 µM
[24] = second compound 3.16 µM, first compound 1 µM
[25] = second compound 10 µM, first compound 0.00316 µM
[26] = second compound 10 µM, first compound 0.01 µM
[27] = second compound 10 µM, first compound 0.0316 µM
[28] = second compound 10 µM, first compound 0.1 µM
[29] = second compound 10 µM, first compound 0.316 µM
[30] = second compound 10 µM, first compound 1 µM

SMILES | IC50 (second compound 0.1 µM) | IC50 (second compound 0.316 µM) | IC50 (second compound 1 µM) | IC50 (second compound 3.16 µM) | IC50 (second compound 10 µM) | viability, T/C [1] | viability, T/C [2] | viability, T/C [3] | viability, T/C [4] | viability, T/C [7] | viability, T/C [8] | viability, T/C [9] | viability, T/C [10] | viability, T/C [13] | viability, T/C [14] | viability, T/C [15] | viability, T/C [16] | viability, T/C [19] | viability, T/C [20] | viability, T/C [21] | also measured
CCN1CCN(Cc2ccc(Nc3ncc(F)c(-c4cc(F)c5nc(C)n(C(C)C)c5c4)n3)nc2)CC1 + Cc1c(S(C)(=O)=O)c(-c2cc(F)cc(N3CCN(c4ccc(NS(=O)(=O)c5ccc(NC(CCN6CCC(C(=O)OCCCP(=O)(O)O)CC6)CSc6ccccc6)c(S(=O)(=O)C(F)(F)F)c5)cc4)CC3)c2)c(-c2ccc(Cl)cc2)n1C(C)C | 0.259 µM | 0.146 µM | 0.135 µM | 0.112 µM | 0.0699 µM | 90.8% | 105% | 71.5% | 68.5% | 92.4% | 88.2% | 75.6% | 52.8% | 94.7% | 83.1% | 70% | 57.6% | 80.9% | 91.8% | 74.2% | viability, T/C [5]: 47.5%; viability, T/C [6]: 26.7%; viability, T/C [11]: 40%; viability, T/C [12]: 20.7%; viability, T/C [17]: 34.8%; viability, T/C [18]: 24.9%; viability, T/C [22]: 49%; viability, T/C [23]: 38.2%; viability, T/C [24]: 23.1%; viability, T/C [25]: 83.9%; viability, T/C [26]: 81.3%; viability, T/C [27]: 60.7%; viability, T/C [28]: 41.6%; viability, T/C [29]: 40.3%; viability, T/C [30]: 24.9%
Cn1ncnc1[C@H]1c2n[nH]c(=O)c3cc(F)cc(c23)N[C@@H]1c1ccc(F)cc1 + Cc1c(S(C)(=O)=O)c(-c2cc(F)cc(N3CCN(c4ccc(NS(=O)(=O)c5ccc(NC(CCN6CCC(C(=O)OCCCP(=O)(O)O)CC6)CSc6ccccc6)c(S(=O)(=O)C(F)(F)F)c5)cc4)CC3)c2)c(-c2ccc(Cl)cc2)n1C(C)C | 0.0154 µM | 0.0127 µM | 0.00769 µM | 0.00869 µM | 0.00657 µM | 81.1% | 55.8% | 39.5% | 23.1% | 71.7% | 55.5% | 33.6% | 18.2% | 63.4% | 50.3% | 22.4% | 13% | 73.6% | 47.5% | 21.6% | viability, T/C (second compound 0.1 µM, first compound 0.000316 µM): 100%; viability, T/C (second compound 0.1 µM, first compound 0.001 µM): 98.9%; viability, T/C (second compound 0.316 µM, first compound 0.000316 µM): 97.6%; viability, T/C (second compound 0.316 µM, first compound 0.001 µM): 82%; viability, T/C (second compound 1 µM, first compound 0.000316 µM): 96.4%; viability, T/C (second compound 1 µM, first compound 0.001 µM): 82.2%; viability, T/C (second compound 3.16 µM, first compound 0.000316 µM): 95.8%; viability, T/C (second compound 3.16 µM, first compound 0.001 µM): 84.2%; viability, T/C [22]: 10.4%; viability, T/C (second compound 10 µM, first compound 0.000316 µM): 82.2%; viability, T/C (second compound 10 µM, first compound 0.001 µM): 75.5%; viability, T/C [25]: 65.4%; viability, T/C [26]: 42.4%; viability, T/C [27]: 16.9%; viability, T/C [28]: 11.3%
O=C(c1ccc(F)c(F)c1Nc1ccc(I)cc1F)N1CC(O)([C@@H]2CCCCN2)C1 + Cc1c(S(C)(=O)=O)c(-c2cc(F)cc(N3CCN(c4ccc(NS(=O)(=O)c5ccc(NC(CCN6CCC(C(=O)OCCCP(=O)(O)O)CC6)CSc6ccccc6)c(S(=O)(=O)C(F)(F)F)c5)cc4)CC3)c2)c(-c2ccc(Cl)cc2)n1C(C)C | 0.566 µM | 0.575 µM | 0.576 µM | 0.511 µM | 0.563 µM | 97.4% | 111% | 106% | 112% | 110% | 107% | 99.5% | 117% | 115% | 110% | 114% | 110% | 107% | 101% | 105% | viability, T/C [5]: 77.6%; viability, T/C [6]: 22.9%; viability, T/C [11]: 79.3%; viability, T/C [12]: 22.9%; viability, T/C [17]: 81.8%; viability, T/C [18]: 20.8%; viability, T/C [22]: 98.7%; viability, T/C [23]: 71.8%; viability, T/C [24]: 19.6%; viability, T/C [25]: 96.2%; viability, T/C [26]: 96.4%; viability, T/C [27]: 104%; viability, T/C [28]: 104%; viability, T/C [29]: 81.7%; viability, T/C [30]: 18.1%
